# Entries after “also recorded” stand apart in the source; their conditions may differ.
# Assays:
# [1] = Colour of the resin after each passage in a blower-extruder; conditions: blower-extruder
# Description: (2) Examination of the colour of the resin after each passage (3 in all) in a blower-extruder, the mould being a 250 ml cylindrical flask.
# Four resins where tested, the first containing 0.2% of 2-phenyl-indole and the others 0.2%, 0.03% and 0.015% of compound 1 respectively.
# [2] = Antioxidant power on a polyvinyl chloride resin, Metrastat oven, 210° C.
# Description: (§1) By direct comparison, on a polyvinyl chloride resin, of the antioxidant power of Compound 1 of the invention and that of an antioxidant known as one of the most valuable and frequently used in polyvinyl chloride, namely 2,6-diterbutyl-4-methyl-phenol.
# (§2) The antioxidant power of Compound 1 was compared to that of 2,6-diterbutyl-4-methyl-phenol (Compound 2) by using the following resin:
# The same trials were carried out in a Metrastat oven at 210° C.
# [3] = Antioxidant power on a polyvinyl chloride resin, GARDNER method, 185° C.
# Description: as §1, §2
# The study was carried out according to the GARDNER method, the samples being removed from an oven at 185° C. every 10 minutes over a period of 80 minutes.
# The signs + and - have the same meanings as in the previous table and > 2 means that the coloration lies between 2 and 2+.
# [4] = Comparison with stabilizer G1, rigid co-polymer (12.5 to 13.5% of acetate), 0.5 part, 185° C.
# Excerpt: Another comparison was made with the following rigid co-polymer: […]
# [5] = Antioxidant power on a polyvinyl chloride resin, GARDNER method, 185° C.; remark: listed apart in the source
# [6] = Photostabilizing power, tetrahydrofuran solution of plates exposed to the sun, French Pharmacopeia
# Description: The photostabilizing power of the compounds of the invention was studied by exposing to the sun polyvinyl chloride plates which had been stabilized either by a dihydropyridine of the invention or by 2-phenyl-indole, or again by 2-(3'-methoxy-4'-hydroxy)-indole. This last product is an extremely valuable thermostabilizer for thermoplastic resins and is described in British Pat. No. 1,489,685.
# The resin given hereunder was prepared by mixing on cylinders at 160° C.:
# The plates of stabilized polyvinyl chloride, together with a plate which had not been stabilized, were stood in the sun under the same conditions and at the same time. Their colour was measured after 6 hours and 12 hours of exposure.
# The coloration of the plates was determined according to two methods:
# On a solution of these plates in tetrahydrofuran, the coloration of th solution being measured according to the French Pharmacopeia (IXth edition, II-338).
# [7] = Comparison with stabilizer G1, 0.3 part, 185° C.
# [8] = Comparison with 1,4-butanediol-β-aminocrotonate and methyl-β-aminocrotonate, rigid co-polymer, 185° C.; conditions: 0.5 part
# Description: (a) Comparison with 1,4-butanediol-β-aminocrotonate and with methyl-β-aminocrotonate.
# The following rigid co-polymer was prepared:
# The sheets were heated in a ventilated oven at 185° C. and the following results were obtained: […]
smiles,measurement,setting,value
"C=CCOC(=O)C1=C(C)NC(C)=C(C(=O)OCC=C)C1 [Compound 1, 2,6-Dimethyl-3,5-dicarboallyloxy-1,4-dihydropyridine]","stability of colour compared to 2-phenyl-indole, in words",[1],markedly superior; also recorded: at all times superior to 2-phenyl-indole used at a concentration of 0.2%
same,"stability of colour compared to 2-phenyl-indole, in words",[1]; listed as compound 1,excellent behaviour
same,time of burning (B),[2]; 0.05 part,40 '
same,"coloration, GARDNER scale","[2]; 0.05 part, 0 to 10 min",1
same,"coloration, GARDNER scale","[2]; 0.05 part, 10 to 20 min",1
same,"coloration, GARDNER scale","[2]; 0.05 part, 20 to 25 min",1
same,"coloration, GARDNER scale","[2]; 0.05 part, 25 to 30 min",1
same,"coloration, GARDNER scale","[2]; 0.05 part, 35 to 40 min",> 10
same,time of burning (B),[2]; 0.1 part,38 '
same,"coloration, GARDNER scale","[2]; 0.1 part, 0 to 10 min",1
same,"coloration, GARDNER scale","[2]; 0.1 part, 10 to 20 min",1
same,"coloration, GARDNER scale","[2]; 0.1 part, 20 to 25 min",1
same,"coloration, GARDNER scale","[2]; 0.1 part, 25 to 30 min",1
same,"coloration, GARDNER scale","[2]; 0.1 part, 35 to 40 min",< 10
same,time of burning (B),[2]; 0.2 part,39 '
same,"coloration, GARDNER scale","[2]; 0.2 part, 0 to 10 min",1
same,"coloration, GARDNER scale","[2]; 0.2 part, 10 to 20 min",1
same,"coloration, GARDNER scale","[2]; 0.2 part, 20 to 25 min",1
same,"coloration, GARDNER scale","[2]; 0.2 part, 25 to 30 min",1
same,"coloration, GARDNER scale","[2]; 0.2 part, 35 to 40 min",< 9
same,time of burning (B),[2]; 0.3 part,39 '
same,"coloration, GARDNER scale","[2]; 0.3 part, 0 to 10 min",1
same,"coloration, GARDNER scale","[2]; 0.3 part, 10 to 20 min",1
same,"coloration, GARDNER scale","[2]; 0.3 part, 20 to 25 min",1
same,"coloration, GARDNER scale","[2]; 0.3 part, 25 to 30 min",1
same,"coloration, GARDNER scale","[2]; 0.3 part, 35 to 40 min",< 9
same,time of burning (B),[2]; 0.4 part,38 '
same,"coloration, GARDNER scale","[2]; 0.4 part, 0 to 10 min",1
same,"coloration, GARDNER scale","[2]; 0.4 part, 10 to 20 min",1
same,"coloration, GARDNER scale","[2]; 0.4 part, 20 to 25 min",1
same,"coloration, GARDNER scale","[2]; 0.4 part, 25 to 30 min",1
same,time of burning (B),[2]; 0.5 part,38 '
same,"coloration, GARDNER scale","[2]; 0.5 part, 0 to 10 min",1
same,"coloration, GARDNER scale","[2]; 0.5 part, 10 to 20 min",1
same,"coloration, GARDNER scale","[2]; 0.5 part, 20 to 25 min",1
same,"coloration, GARDNER scale","[2]; 0.5 part, 25 to 30 min",1
same,time of burning (B),[2]; 1.0 part,37 '
same,"coloration, GARDNER scale","[2]; 1.0 part, 0 to 10 min",1
same,"coloration, GARDNER scale","[2]; 1.0 part, 10 to 20 min",1
same,"coloration, GARDNER scale","[2]; 1.0 part, 20 to 25 min",1
same,"coloration, GARDNER scale","[2]; 1.0 part, 25 to 30 min",1
same,"antioxidant power, Compound 1 vs Compound Z, in words",[2]; 210° C.,markedly superior to Compound Z
same,"coloration, GARDNER scale","[3]; 0.05 part, 0 min",1
same,"coloration, GARDNER scale","[3]; 0.05 part, 10 min",1
same,"coloration, GARDNER scale","[3]; 0.05 part, 60 min",7
same,"coloration, GARDNER scale","[3]; 0.05 part, 70 min",8
same,"coloration, GARDNER scale","[3]; 0.1 part, 0 min",1
same,"coloration, GARDNER scale","[3]; 0.1 part, 10 min",1
same,"coloration, GARDNER scale","[3]; 0.1 part, 30 min",< 2
same,"coloration, GARDNER scale","[3]; 0.1 part, 60 min",7
same,"coloration, GARDNER scale","[3]; 0.1 part, 70 min",7
same,"coloration, GARDNER scale","[3]; 0.2 part, 0 min",1
same,"coloration, GARDNER scale","[3]; 0.2 part, 10 min",1
same,"coloration, GARDNER scale","[3]; 0.2 part, 20 min",1
same,"coloration, GARDNER scale","[3]; 0.2 part, 40 min",2
same,"coloration, GARDNER scale","[3]; 0.2 part, 50 min",3
same,"coloration, GARDNER scale","[3]; 0.2 part, 60 min",5
same,"coloration, GARDNER scale","[3]; 0.2 part, 70 min",> 6
same,"coloration, GARDNER scale","[3]; 0.3 part, 0 min",1
same,"coloration, GARDNER scale","[3]; 0.3 part, 10 min",1
same,"coloration, GARDNER scale","[3]; 0.3 part, 20 min",1
same,"coloration, GARDNER scale","[3]; 0.3 part, 30 min",1
same,"coloration, GARDNER scale","[3]; 0.3 part, 40 min",2
same,"coloration, GARDNER scale","[3]; 0.3 part, 50 min",> 2
same,"coloration, GARDNER scale","[3]; 0.3 part, 60 min",8
same,"coloration, GARDNER scale","[3]; 0.3 part, 70 min",8
same,"coloration, GARDNER scale","[3]; 0.4 part, 0 min",1
same,"coloration, GARDNER scale","[3]; 0.4 part, 10 min",1
same,"coloration, GARDNER scale","[3]; 0.4 part, 20 min",1
same,"coloration, GARDNER scale","[3]; 0.4 part, 30 min",1
same,"coloration, GARDNER scale","[3]; 0.4 part, 60 min",4
same,"coloration, GARDNER scale","[3]; 0.4 part, 70 min",8
same,"coloration, GARDNER scale","[3]; 0.5 part, 0 min",1
same,"coloration, GARDNER scale","[3]; 0.5 part, 10 min",1
same,"coloration, GARDNER scale","[3]; 0.5 part, 20 min",1
same,"coloration, GARDNER scale","[3]; 0.5 part, 30 min",> 1
same,"coloration, GARDNER scale","[3]; 1.0 part, 0 min",1
same,"coloration, GARDNER scale","[3]; 1.0 part, 10 min",1
same,"coloration, GARDNER scale","[3]; 1.0 part, 20 min",1
same,"coloration, GARDNER scale","[3]; 1.0 part, 30 min",1
same,"coloration, GARDNER scale","[3]; 1.0 part, 50 min",4
same,"coloration, GARDNER scale","[3]; 1.0 part, 60 min",8
same,"coloration, GARDNER scale",[4]; 0 min,1
same,"coloration, GARDNER scale",[4]; 2 min,1
same,"coloration, GARDNER scale",[4]; 4 min,2
same,"coloration, GARDNER scale",[4]; 6 min,3
same,"coloration, GARDNER scale",[4]; 10 min,12
same,"coloration, GARDNER scale",[4]; 12 min,18
same,"coloration, GARDNER scale","[4]; column without printed time, between 6 and 10 min",7
same,"antioxidant power, Compound 1 vs Compound Z, in words",[5],superior to Compound Z at every concentration
"CC1=C(C(=O)OCc2ccccc2)CC(C(=O)OCc2ccccc2)=C(C)N1 [Compound 21, 2,6-Dimethyl-3,5-dicarbobenzyloxy-1,4-dihydropyridine]",Coloration of the plates FRENCH PHARMACOPEIA,[6]; exposure to sun 0,JV6
same,Coloration of the plates FRENCH PHARMACOPEIA,[6]; exposure to sun 6h,JV6
same,Coloration of the plates FRENCH PHARMACOPEIA,[6]; exposure to sun 12h,JV5
same,"coloration, GARDNER scale",[7]; 0 min,1
same,"coloration, GARDNER scale",[7]; 2 min,1
same,"coloration, GARDNER scale",[7]; 4 min,2
same,"coloration, GARDNER scale",[7]; 6 min,4
same,"coloration, GARDNER scale",[7]; 8 min,7
same,"coloration, GARDNER scale",[7]; 10 min,12
same,"coloration, GARDNER scale",[7]; 12 min,16
same,"coloration, GARDNER scale",[7]; 14 min,18
same,"coloration, GARDNER scale",[8]; 0 min,1
same,"coloration, GARDNER scale",[8]; 2 min,1
same,"coloration, GARDNER scale",[8]; 4 min,4
same,"coloration, GARDNER scale",[8]; 6 min,6
same,"coloration, GARDNER scale",[8]; 8 min,11
same,"coloration, GARDNER scale",[8]; 10 min,13
same,"coloration, GARDNER scale",[8]; 12 min,17

# — US4317768A, “Dihydropyridine derivatives as stabilizers for vinyl chloride polymers” (priority 1977, dated 1982)
